Common to all, as to type: functional
In assay [1] the test system is Cryptococcus neoformans. Kind of assay: Antifungal activity against Cryptococcus neoformans H99 measured after 24 to 48 hrs by CLSI method. To be noted: time 24-48 hrs.
Assay [2] deals with Candida parapsilosis. Put plainly: Antifungal activity against Candida parapsilosis ATCC 22019 measured after 24 to 48 hrs by CLSI method. To be noted: Lodderomyces parapsilosis, time 24-48 hrs.
Assay [3] relates to Candida albicans. Kind of assay: Antifungal activity against Candida albicans SC5314 measured after 24 to 48 hrs by CLSI method. The settings on record: time 24-48 hrs.
Assay [4] relates to Pichia kudriavzevii. Put plainly: Antifungal activity against Candida krusei IFM56881 measured after 24 to 48 hrs by CLSI method. The settings on record: time 24-48 hrs.

SMILES strings stand for the structures. ≈ marks a conversion by molar mass, not a printed value. Peptide text beside a SMILES is read from it. A value given as a limit tells only on which side of the number the result lay.

As a reminder, the MIC is the lowest concentration found to suppress growth. Higher therefore signals a need for much substance.

For the molecule `CC[C@H](C)[C@H](NC(=O)[C@H](CCCCN)NC(=O)[C@H](CO)NC(=O)[C@H](Cc1ccccc1)NC(=O)[C@@H](NC(=O)[C@@H](NC(=O)[C@H](CCCNC(=N)N)NC(=O)[C@H](Cc1ccccc1)NC(=O)[C@@H](NC(=O)[C@H](CCCCN)NC(=O)[C@H](CC(N)=O)NC(=O)[C@@H](N)CCSC)[C@@H](C)CC)C(C)C)[C@@H](C)CC)C(=O)N[C@@H](CC(C)C)C(=O)NCC(=O)N[C@@H](CCCNC(=N)N)C(=O)N[C@@H](CC(C)C)C(=O)N[C@H](C(=O)N[C@H](C(=O)N[C@H](C(=O)O)[C@@H](C)O)C(C)C)[C@@H](C)CC` (H-MNKIFRVIFSKILGRLIVT-OH), the MIC is 7.12 µM (≈ 16 µg/mL) in assay [1], 14.2 µM (≈ 32 µg/mL) in assay [2], 14.2 µM (≈ 32 µg/mL) in assay [3] and 56.9 µM (≈ 128 µg/mL) in assay [4].
`CC[C@H](C)[C@H](NC(=O)[C@H](CCCNC(=N)N)NC(=O)CNC(=O)[C@H](CC(C)C)NC(=O)[C@H](Cc1ccccc1)NC(=O)[C@H](CCC(N)=O)NC(=O)[C@H](Cc1ccccc1)NC(=O)[C@@H](N)C(C)C)C(=O)N[C@H](C(=O)N[C@@H](Cc1cnc[nH]1)C(=O)N[C@@H](Cc1cnc[nH]1)C(=O)N[C@H](C(=O)NCC(=O)N[C@@H](CC(N)=O)C(=O)N[C@@H](Cc1ccccc1)C(=O)N[C@H](C(=O)N[C@@H](Cc1cnc[nH]1)C(=O)NCC(=O)N[C@@H](Cc1ccccc1)C(=O)N[C@@H](CO)C(=O)N[C@@H](Cc1cnc[nH]1)C(=O)N[C@H](C(=O)N[C@@H](Cc1ccccc1)C(=O)O)C(C)C)C(C)C)C(C)C)[C@@H](C)CC` [Clavanin B] (H-VFQFLGRIIHHVGNFVHGFSHVF-OH): the MIC in assay [1], in assay [2], in assay [3] and in assay [4] was more than 95 µM throughout.
Regarding `CC[C@H](C)[C@H](NC(=O)[C@@H](NC(=O)[C@H](Cc1ccccc1)NC(=O)[C@H](CS)NC(=O)[C@@H](NC(=O)[C@H](CC(C)C)NC(=O)[C@H](Cc1ccccc1)NC(=O)[C@@H](NC(=O)[C@H](Cc1ccccc1)NC(=O)CNC(=O)[C@H](Cc1ccccc1)NC(=O)[C@H](CCCCN)NC(=O)[C@H](CCCCN)NC(=O)[C@H](CCCCN)NC(=O)[C@H](CC(C)C)NC(=O)[C@@H](N)CCSC)C(C)C)C(C)C)C(C)C)C(=O)N[C@@H](Cc1ccccc1)C(=O)N[C@@H](Cc1cnc[nH]1)C(=O)N[C@@H](CO)C(=O)N[C@@H](CS)C(=O)N[C@@H](CCCCN)C(=O)O` (H-MLKKKFGFVFLVCFVIFHSCK-OH), the MIC in assay [1], in assay [2], in assay [3] and in assay [4] was more than 102 µM throughout.
For `CC[C@H](C)[C@H](NC(=O)CNC(=O)[C@H](C)NC(=O)[C@H](CC(C)C)NC(=O)[C@H](C)NC(=O)[C@H](Cc1c[nH]c2ccccc12)NC(=O)[C@H](CC(C)C)NC(=O)[C@H](CCCCN)NC(=O)[C@H](CCCCN)NC(=O)[C@H](Cc1ccc(O)cc1)NC(=O)[C@H](CCCCN)NC(=O)[C@@H](N)CCSC)C(=O)N[C@@H](C)C(=O)N[C@@H](CC(C)C)C(=O)N[C@@H](CO)C(=O)N[C@@H](CS)C(=O)N[C@@H](CC(N)=O)C(=O)N[C@@H](CC(C)C)C(=O)N[C@@H](CC(C)C)C(=O)N[C@@H](CC(C)C)C(=O)N[C@H](C(=O)N[C@@H](C)C(=O)O)[C@@H](C)O` (H-MKYKKLWALAGIALSCNLLLTA-OH), the MIC in assay [1], in assay [2], in assay [3] and in assay [4] was more than 106 µM throughout.
Consider `CSCC[C@H](N)C(=O)N[C@@H](C)C(=O)N[C@H](C(=O)N[C@@H](CCCCN)C(=O)N[C@@H](CCCCN)C(=O)N[C@@H](CCCCN)C(=O)N[C@H](C(=O)N[C@H](C(=O)N[C@@H](CCCCN)C(=O)N[C@@H](CCCCN)C(=O)N[C@@H](C)C(=O)N[C@H](C(=O)N[C@@H](CCCCN)C(=O)N[C@@H](CCCCN)C(=O)N[C@H](C(=O)N[C@@H](C)C(=O)N[C@@H](CCCCN)C(=O)N[C@@H](CCCCN)C(=O)N[C@@H](C)C(=O)N1CCC[C@H]1C(=O)N[C@@H](CCCCN)C(=O)N[C@@H](CCCCN)C(=O)N[C@@H](C)C(=O)N[C@H](C(=O)N[C@@H](CCCCN)C(=O)N[C@@H](CCCCN)C(=O)N[C@H](C(=O)N[C@@H](C)C(=O)N[C@@H](CCCCN)C(=O)N[C@@H](CCCCN)C(=O)N[C@@H](CCCCN)C(=O)O)C(C)C)C(C)C)C(C)C)C(C)C)C(C)C)C(C)C)[C@@H](C)O` (H-MATKKKVVKKAVKKVAKKAPKKAVKKVAKKK-OH), for which the MIC is 37.4 µM (≈ 128 µg/mL) in assay [1], more than 74.9 µM in assay [2], more than 74.9 µM in assay [3] and more than 74.9 µM in assay [4].
With `CC[C@H](C)[C@H](NC(=O)[C@H](CCCCN)NC(=O)[C@H](CC(C)C)NC(=O)[C@H](Cc1ccccc1)NC(=O)[C@H](CC(C)C)NC(=O)[C@H](Cc1ccccc1)NC(=O)[C@@H](NC(=O)[C@H](CO)NC(=O)[C@H](CO)NC(=O)[C@@H](NC(=O)[C@H](Cc1ccccc1)NC(=O)[C@@H](NC(=O)[C@H](CO)NC(=O)[C@H](Cc1ccc(O)cc1)NC(=O)[C@@H](N)CCSC)C(C)C)[C@@H](C)CC)[C@@H](C)CC)C(=O)N[C@@H](CCCNC(=N)N)C(=O)N[C@@H](Cc1ccccc1)C(=O)N[C@@H](CCCCN)C(=O)N[C@@H](CC(C)C)C(=O)N[C@@H](Cc1ccc(O)cc1)C(=O)N1CCC[C@H]1C(=O)N[C@@H](CCCNC(=N)N)C(=O)O` (H-MYSVFISSIFLFLKIRFKLYPR-OH), the MIC in assay [1], in assay [2], in assay [3] and in assay [4] was more than 92.4 µM in each case.
As for `CC(C)[C@H](NC(=O)[C@H](CCCNC(=N)N)NC(=O)[C@H](Cc1ccccc1)NC(=O)[C@H](CS)NC(=O)[C@H](Cc1c[nH]c2ccccc12)NC(=O)[C@H](CCCNC(=N)N)NC(=O)[C@@H](N)CCCNC(=N)N)C(=O)N[C@@H](CS)C(=O)N[C@@H](Cc1ccc(O)cc1)C(=O)N[C@@H](CCCNC(=N)N)C(=O)NCC(=O)N[C@@H](Cc1ccccc1)C(=O)N[C@@H](CS)C(=O)N[C@@H](Cc1ccc(O)cc1)C(=O)N[C@@H](CCCNC(=N)N)C(=O)N[C@@H](CCCCN)C(=O)N[C@@H](CS)C(=O)N[C@@H](CCCNC(=N)N)C(=O)O` (H-RRWCFRVCYRGFCYRKCR-OH), the MIC in assay [1] amounted to 1.02 µM (≈ 2.51 µg/mL); in assay [2] it was 1.02 µM (≈ 2.51 µg/mL); in assay [3], 4.07 µM (≈ 10 µg/mL); in assay [4] it was 4.07 µM (≈ 10 µg/mL).
On to `CC[C@H](C)[C@H](NC(=O)[C@H](CCCCN)NC(=O)[C@@H](NC(=O)[C@@H](N)CCSC)[C@@H](C)O)C(=O)N[C@@H](CC(C)C)C(=O)N[C@@H](CC(C)C)C(=O)N[C@H](C(=O)N[C@H](C(=O)N[C@@H](CCCCN)C(=O)N[C@@H](CCCNC(=N)N)C(=O)N[C@@H](CC(C)C)C(=O)N[C@@H](CCCNC(=N)N)C(=O)N[C@H](C(=O)N[C@H](C(=O)N[C@@H](Cc1ccc(O)cc1)C(=O)N[C@H](C(=O)N[C@@H](CCCCN)C(=O)N[C@@H](CCCNC(=N)N)C(=O)N[C@@H](CS)C(=O)N[C@@H](CC(C)C)C(=O)N[C@@H](CS)C(=O)N[C@@H](Cc1ccccc1)C(=O)N[C@@H](CCCNC(=N)N)C(=O)N[C@@H](C)C(=O)O)[C@@H](C)O)C(C)C)[C@@H](C)O)C(C)C)[C@@H](C)CC` (H-MTKILLIVKRLRTVYTKRCLCFRA-OH), for which the MIC in assay [1] was 5.47 µM (≈ 16 µg/mL); in assay [2], 43.8 µM (≈ 128 µg/mL); in assay [3] it was 43.8 µM (≈ 128 µg/mL); in assay [4], 21.9 µM (≈ 64 µg/mL).
Turning to `CC[C@H](C)[C@H](NC(=O)CNC(=O)[C@H](CCCNC(=N)N)NC(=O)[C@H](Cc1ccc(O)cc1)NC(=O)[C@H](CS)NC(=O)[C@@H](NC(=O)[C@H](CCCNC(=N)N)NC(=O)[C@H](Cc1ccccc1)NC(=O)[C@H](CS)NC(=O)[C@H](Cc1c[nH]c2ccccc12)NC(=O)[C@@H](N)CCCCN)C(C)C)C(=O)N[C@@H](CS)C(=O)N[C@@H](Cc1ccc(O)cc1)C(=O)N[C@@H](CCCNC(=N)N)C(=O)N[C@@H](CCCCN)C(=O)N[C@@H](CS)C(=O)N[C@@H](CCCNC(=N)N)C(=O)O` (H-KWCFRVCYRGICYRKCR-OH), the MIC came out at 1.79 µM (≈ 4.01 µg/mL) in assay [1], 7.14 µM (≈ 16 µg/mL) in assay [2], 14.3 µM (≈ 32 µg/mL) in assay [3] and 28.6 µM (≈ 64 µg/mL) in assay [4].
In the same order, the values of `CC[C@H](C)[C@H](NC(=O)[C@H](Cc1cnc[nH]1)NC(=O)[C@H](C)NC(=O)[C@H](CC(C)C)NC(=O)[C@H](CC(C)C)NC(=O)[C@H](CCCCN)NC(=O)[C@H](CCSC)NC(=O)[C@@H](NC(=O)[C@@H](NC(=O)[C@H](Cc1cnc[nH]1)NC(=O)[C@H](Cc1c[nH]c2ccccc12)NC(=O)[C@@H](NC(=O)[C@H](CCCCN)NC(=O)[C@H](Cc1cnc[nH]1)NC(=O)[C@@H](NC(=O)[C@H](CCCCN)NC(=O)[C@H](Cc1cnc[nH]1)NC(=O)[C@@H](N)Cc1ccc(O)cc1)[C@@H](C)CC)C(C)C)[C@@H](C)CC)[C@@H](C)CC)C(=O)O` (H-YHKIHKVWHIIMKLLAHI-OH) are 7.02 µM (≈ 16 µg/mL), 14 µM (≈ 32 µg/mL), 28.1 µM (≈ 64 µg/mL) and 7.02 µM (≈ 16 µg/mL).
`CC[C@H](C)[C@H](NC(=O)CNC(=O)[C@H](CCCNC(=N)N)NC(=O)[C@H](Cc1ccc(O)cc1)NC(=O)[C@H](CS)NC(=O)[C@@H](NC(=O)[C@H](CCCNC(=N)N)NC(=O)[C@H](Cc1ccccc1)NC(=O)[C@H](CS)NC(=O)[C@H](Cc1c[nH]c2ccccc12)NC(=O)[C@@H](N)CCCCN)C(C)C)C(=O)N[C@@H](CS)C(=O)N[C@@H](Cc1ccc(O)cc1)C(=O)N[C@@H](CCCNC(=N)N)C(=O)N[C@@H](CCCNC(=N)N)C(=O)N[C@@H](CS)C(=O)N[C@@H](CCCNC(=N)N)C(=O)O` (H-KWCFRVCYRGICYRRCR-OH): the MIC worked out at 3.53 µM (≈ 8.01 µg/mL) in assay [1], 7.05 µM (≈ 16 µg/mL) in assay [2], 14.1 µM (≈ 32 µg/mL) in assay [3] and 28.2 µM (≈ 64 µg/mL) in assay [4].
In the same order, the values of `CC[C@H](C)[C@H](NC(=O)[C@H](CCC(N)=O)NC(=O)[C@H](CCCCN)NC(=O)[C@H](CCCCN)NC(=O)[C@H](Cc1c[nH]c2ccccc12)NC(=O)[C@@H]1CCCN1C(=O)[C@@H](NC(=O)[C@H](CC(C)C)NC(=O)[C@H](CCCNC(=N)N)NC(=O)[C@H](CC(C)C)NC(=O)[C@@H](NC(=O)[C@H](CC(C)C)NC(=O)[C@@H]1CCCN1C(=O)[C@H](CCCCN)NC(=O)[C@H](Cc1cnc[nH]1)NC(=O)[C@H](CS)NC(=O)[C@H](CCCCN)NC(=O)[C@H](CCCNC(=N)N)NC(=O)[C@H](CC(C)C)NC(=O)[C@H](CCCNC(=N)N)NC(=O)[C@@H](N)CCSC)[C@@H](C)O)C(C)C)C(=O)N[C@@H](CCSC)C(=O)O` (H-MRLRKCHKPLTLRLVPWKKQIM-OH) are 92.2 µM (≈ 256 µg/mL), more than 92.2 µM, more than 92.2 µM and more than 92.2 µM.

For the origin of these results see ChEMBL document CHEMBL5113381, “Large-Scale Screening of Antifungal Peptides Based on Quantitative Structure-Activity Relationship” (2022).
